{"source": "patent US6355799B1", "about": "“Substituted benzene compounds, process for their preparation, and herbicidal and defoliant compositions containing them” (ISK Americas Incorporated, priority 1997, dated 2002)", "assay_type_in_all_cases": "in vivo", "key": {"[1]": {"system": "field corn (Zea mays L., var. Dekalb 535, CORN)", "experiment": "Post-emerge test, crop safety", "settings": "rating scale 0-100 (0 no damage, 100 complete death), 14 days after application", "method_in_brief": "(§1)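 Rating: 0–100 visual injury, 14 DAA. Application: acetone, 187 l/ha, 15–1000 g ai/ha, flat-fan track sprayer with nozzle 40–45 cm above soil or canopy. Post-emerge runs used 0.25% v/v surfactant on 2–3 leaf plants.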"}, "[2]": {"system": "upland rice (Oryza sp., var. Tebonnet, RICE)", "experiment": "Post-emerge test, crop safety", "settings": "rating scale 0-100 (0 no damage, 100 complete death), 14 days after application", "method_in_brief": "as §1"}, "[3]": {"system": "large crabgrass (Digitaria sanguinalis, DIGSA)", "experiment": "Post-emerge test, greenhouse herbicide activity screening", "settings": "rating scale 0-100 (0 no damage, 100 complete death), 14 days after application", "method_in_brief": "(§2)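 Visual ratings on a 0-100 scale (0 no damage, 100 all plants dead) were taken at 14 days after treatment. Rates of 15-1000 g ai/ha in acetone, 187 l/ha, were sprayed onto soil one day after planting (pre-emerge) or onto 2-3 leaf plants with 0.25% v/v surfactant (post-emerge).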"}, "[4]": {"system": "barnyardgrass (Echinochloa crus-galli, ECHCG)", "experiment": "Post-emerge test, greenhouse herbicide activity screening", "settings": "rating scale 0-100 (0 no damage, 100 complete death), 14 days after application", "method_in_brief": "as §2"}, "[5]": {"system": "green foxtail (Setaria viridis, SETVI)", "experiment": "Post-emerge test, greenhouse herbicide activity screening", "settings": "rating scale 0-100 (0 no damage, 100 complete death), 14 days after application", "method_in_brief": "as §2"}, "[6]": {"system": "ivyleaf morningglory (Ipomoea hederacea, IPOHE)", "experiment": "Post-emerge test, greenhouse herbicide activity screening", "settings": "rating scale 0-100 (0 no damage, 100 complete death), 14 days after application", "method_in_brief": "as §2"}, "[7]": {"system": "lambsquarters (Chenopodium album, CHEAL)", "experiment": "Post-emerge test, greenhouse herbicide activity screening", "settings": "rating scale 0-100 (0 no damage, 100 complete death), 14 days after application", "method_in_brief": "as §2"}, "[8]": {"system": "velvetleaf (Abutilon theophrasti, ABUTH)", "experiment": "Post-emerge test, greenhouse herbicide activity screening", "settings": "rating scale 0-100 (0 no damage, 100 complete death), 14 days after application", "method_in_brief": "as §2"}, "[9]": {"system": "sicklepod (Cassia obtusifolia, CASOB)", "experiment": "Post-emerge test, greenhouse herbicide activity screening", "settings": "rating scale 0-100 (0 no damage, 100 complete death), 14 days after application", "method_in_brief": "as §2"}, "[10]": {"system": "common ragweed (Ambrosia artemisizfolia L., AMBEL)", "experiment": "Post-emerge test, greenhouse herbicide activity screening", "settings": "rating scale 0-100 (0 no damage, 100 complete death), 14 days after application", "method_in_brief": "as §2"}, "[11]": {"system": "redroot pigweed (Amaranthus retroflexus, AMARE)", "experiment": "Post-emerge test, greenhouse herbicide activity screening", "settings": "rating scale 0-100 (0 no damage, 100 complete death), 14 days after application", "method_in_brief": "as §2"}, "[12]": {"system": "field corn (Zea mays L., var. Dekalb 535, CORN)", "experiment": "Pre-emerge test, crop safety", "settings": "rating scale 0-100, 14 days after application", "method_in_brief": "(§3)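 Sandy loam pots; pre-emerge: sown 1 d pre-spray, surface-watered after, then bottom-watered. Post-emerge: sown 8–21 d before, 2–3 leaf stage, + 0.25% v/v NIS, bottom-watered. Acetone, 187 l/ha track spray, 15–1000 g ai/ha. 0–100 injury score, day 14.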"}, "[13]": {"system": "upland rice (Oryza sp., var. Tebonnet, RICE)", "experiment": "Pre-emerge test, crop safety", "settings": "rating scale 0-100, 14 days after application", "method_in_brief": "as §3"}, "[14]": {"system": "large crabgrass (Digitaria sanguinalis, DIGSA)", "experiment": "Pre-emerge test, greenhouse herbicide activity screening", "settings": "rating scale 0-100, 14 days after application", "method_in_brief": "(§4)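 Compounds in acetone were track-sprayed at 15–1000 g ai/ha: pre-emergence onto soil sown the previous day, then top-watered to incorporate and later bottom-watered; post-emergence onto 2–3 leaf plants with 0.25% v/v surfactant, bottom-watered only. Ratings on a 0–100 phytotoxicity scale were taken at day 14.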"}, "[15]": {"system": "barnyardgrass (Echinochloa crus-galli, ECHCG)", "experiment": "Pre-emerge test, greenhouse herbicide activity screening", "settings": "rating scale 0-100, 14 days after application", "method_in_brief": "as §4"}, "[16]": {"system": "green foxtail (Setaria viridis, SETVI)", "experiment": "Pre-emerge test, greenhouse herbicide activity screening", "settings": "rating scale 0-100, 14 days after application", "method_in_brief": "as §4"}, "[17]": {"system": "ivyleaf morningglory (Ipomoea hederacea, IPOHE)", "experiment": "Pre-emerge test, greenhouse herbicide activity screening", "settings": "rating scale 0-100, 14 days after application", "method_in_brief": "as §4"}, "[18]": {"system": "lambsquarters (Chenopodium album, CHEAL)", "experiment": "Pre-emerge test, greenhouse herbicide activity screening", "settings": "rating scale 0-100, 14 days after application", "method_in_brief": "as §4"}, "[19]": {"system": "johnsongrass (Sorghum halepense, SORHA)", "experiment": "Pre-emerge test, greenhouse herbicide activity screening", "settings": "rating scale 0-100, 14 days after application", "method_in_brief": "as §4"}, "[20]": {"system": "velvetleaf (Abutilon theophrasti, ABUTH)", "experiment": "Pre-emerge test, greenhouse herbicide activity screening", "settings": "rating scale 0-100, 14 days after application", "method_in_brief": "as §4"}, "[21]": {"system": "sicklepod (Cassia obtusifolia, CASOB)", "experiment": "Pre-emerge test, greenhouse herbicide activity screening", "settings": "rating scale 0-100, 14 days after application", "method_in_brief": "as §4"}, "[22]": {"system": "common ragweed (Ambrosia artemisizfolia L., AMBEL)", "experiment": "Pre-emerge test, greenhouse herbicide activity screening", "settings": "rating scale 0-100, 14 days after application", "method_in_brief": "as §4"}, "[23]": {"system": "redroot pigweed (Amaranthus retroflexus, AMARE)", "experiment": "Pre-emerge test, greenhouse herbicide activity screening", "settings": "rating scale 0-100, 14 days after application", "method_in_brief": "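Compounds in acetone were track-sprayed at 15-1000 g ai/ha (187 l/ha) on sandy loam pots: pre-emerge one day after seeding, post-emerge at 2-3 leaf stage with 0.25% v/v non-ionic surfactant. Phytotoxicity was rated 14 days later on a 0 (no damage) to 100 (complete death) scale.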"}}, "data": [{"smiles": "CCCCCCOC(=O)C(Cl)Cc1c(OC)c(Cl)cc(F)c1-n1c(=O)cc(C(F)(F)F)n(C)c1=O", "note": "(single isomer, unassigned) [14-12]", "values": [{"measurement": "Post-emerge phytotoxicity rating CORN (crop damage)", "setting": "[1]; Rate 63 g ai/ha", "result": 30}, {"measurement": "Post-emerge phytotoxicity rating CORN (crop damage)", "setting": "[1]; Rate 250 g ai/ha", "result": 85}, {"measurement": "Post-emerge phytotoxicity rating RICE (crop damage)", "setting": "[2]; Rate 63 g ai/ha", "result": 0}, {"measurement": "Post-emerge phytotoxicity rating RICE (crop damage)", "setting": "[2]; Rate 250 g ai/ha", "result": 10}, {"measurement": "Post-emerge Herbicidal Activity, phytotoxicity rating DIGSA", "setting": "[3]; Rate 63 g ai/ha", "result": 50}, {"measurement": "Post-emerge Herbicidal Activity, phytotoxicity rating DIGSA", "setting": "[3]; Rate 250 g ai/ha", "result": 60}, {"measurement": "Post-emerge Herbicidal Activity, phytotoxicity rating ECHCG", "setting": "[4]; Rate 63 g ai/ha", "result": 98}, {"measurement": "Post-emerge Herbicidal Activity, phytotoxicity rating ECHCG", "setting": "[4]; Rate 250 g ai/ha", "result": 99}, {"measurement": "Post-emerge Herbicidal Activity, phytotoxicity rating SETVI", "setting": "[5]; Rate 63 g ai/ha", "result": 30}, {"measurement": "Post-emerge Herbicidal Activity, phytotoxicity rating SETVI", "setting": "[5]; Rate 250 g ai/ha", "result": 40}, {"measurement": "Post-emerge Herbicidal Activity, phytotoxicity rating IPOHE", "setting": "[6]; Rate 63 g ai/ha", "result": 40}, {"measurement": "Post-emerge Herbicidal Activity, phytotoxicity rating IPOHE", "setting": "[6]; Rate 250 g ai/ha", "result": 70}, {"measurement": "Post-emerge Herbicidal Activity, phytotoxicity rating CHEAL", "setting": "[7]; Rate 63 g ai/ha", "result": 90}, {"measurement": "Post-emerge Herbicidal Activity, phytotoxicity rating CHEAL", "setting": "[7]; Rate 250 g ai/ha", "result": 99}, {"measurement": "Post-emerge Herbicidal Activity, phytotoxicity rating ABUTH", "setting": "[8]; Rate 63 g ai/ha", "result": 10}, {"measurement": "Post-emerge Herbicidal Activity, phytotoxicity rating ABUTH", "setting": "[8]; Rate 250 g ai/ha", "result": 85}, {"measurement": "Post-emerge Herbicidal Activity, phytotoxicity rating CASOB", "setting": "[9]; Rate 63 g ai/ha", "result": 20}, {"measurement": "Post-emerge Herbicidal Activity, phytotoxicity rating CASOB", "setting": "[9]; Rate 250 g ai/ha", "result": 80}, {"measurement": "Post-emerge Herbicidal Activity, phytotoxicity rating AMBEL", "setting": "[10]; Rate 63 g ai/ha", "result": 80}, {"measurement": "Post-emerge Herbicidal Activity, phytotoxicity rating AMBEL", "setting": "[10]; Rate 250 g ai/ha", "result": 80}, {"measurement": "Post-emerge Herbicidal Activity, phytotoxicity rating AMARE", "setting": "[11]; Rate 63 g ai/ha", "result": 85}, {"measurement": "Post-emerge Herbicidal Activity, phytotoxicity rating AMARE", "setting": "[11]; Rate 250 g ai/ha", "result": 90}, {"measurement": "Pre-emerge phytotoxicity rating, crop damage CORN", "setting": "[12]; 63 g ai/ha", "result": 0}, {"measurement": "Pre-emerge phytotoxicity rating, crop damage CORN", "setting": "[12]; 250 g ai/ha", "result": 0}, {"measurement": "Pre-emerge phytotoxicity rating, crop damage RICE", "setting": "[13]; 63 g ai/ha", "result": 0}, {"measurement": "Pre-emerge phytotoxicity rating, crop damage RICE", "setting": "[13]; 250 g ai/ha", "result": 0}, {"measurement": "Pre-emerge herbicidal activity, phytotoxicity rating DIGSA", "setting": "[14]; 63 g ai/ha", "result": 0}, {"measurement": "Pre-emerge herbicidal activity, phytotoxicity rating DIGSA", "setting": "[14]; 250 g ai/ha", "result": 100}, {"measurement": "Pre-emerge herbicidal activity, phytotoxicity rating ECHCG", "setting": "[15]; 63 g ai/ha", "result": 0}, {"measurement": "Pre-emerge herbicidal activity, phytotoxicity rating ECHCG", "setting": "[15]; 250 g ai/ha", "result": 0}, {"measurement": "Pre-emerge herbicidal activity, phytotoxicity rating SETVI", "setting": "[16]; 63 g ai/ha", "result": 0}, {"measurement": "Pre-emerge herbicidal activity, phytotoxicity rating SETVI", "setting": "[16]; 250 g ai/ha", "result": 0}, {"measurement": "Pre-emerge herbicidal activity, phytotoxicity rating IPOHE", "setting": "[17]; 63 g ai/ha", "result": 0}, {"measurement": "Pre-emerge herbicidal activity, phytotoxicity rating IPOHE", "setting": "[17]; 250 g ai/ha", "result": 0}, {"measurement": "Pre-emerge herbicidal activity, phytotoxicity rating CHEAL", "setting": "[18]; 63 g ai/ha", "result": 50}, {"measurement": "Pre-emerge herbicidal activity, phytotoxicity rating CHEAL", "setting": "[18]; 250 g ai/ha", "result": 60}, {"measurement": "Pre-emerge herbicidal activity, phytotoxicity rating SORHA", "setting": "[19]; 63 g ai/ha", "result": 0}, {"measurement": "Pre-emerge herbicidal activity, phytotoxicity rating SORHA", "setting": "[19]; 250 g ai/ha", "result": 0}, {"measurement": "Pre-emerge herbicidal activity, phytotoxicity rating ABUTH", "setting": "[20]; 63 g ai/ha", "result": 0}, {"measurement": "Pre-emerge herbicidal activity, phytotoxicity rating ABUTH", "setting": "[20]; 250 g ai/ha", "result": 20}, {"measurement": "Pre-emerge herbicidal activity, phytotoxicity rating CASOB", "setting": "[21]; 63 g ai/ha", "result": 0}, {"measurement": "Pre-emerge herbicidal activity, phytotoxicity rating CASOB", "setting": "[21]; 250 g ai/ha", "result": 0}, {"measurement": "Pre-emerge herbicidal activity, phytotoxicity rating AMBEL", "setting": "[22]; 63 g ai/ha", "result": 0}, {"measurement": "Pre-emerge herbicidal activity, phytotoxicity rating AMBEL", "setting": "[22]; 250 g ai/ha", "result": 0}, {"measurement": "Pre-emerge herbicidal activity, phytotoxicity rating AMARE", "setting": "[23]; 63 g ai/ha", "result": 60}, {"measurement": "Pre-emerge herbicidal activity, phytotoxicity rating AMARE", "setting": "[23]; 250 g ai/ha", "result": 100}]}]}
